According to PubChem BioAssay AID248 (DTP/NCI, 2004):
“And” between values parts separate entries of the source, which are not always exact repeats. Identical values can stand only once. Inconclusive results and toxic doses are left out. No stated cut-off is given here; in the data, active means T/C of 150% or more; inactive means T/C below 125%.

Tested on: L1210 leukemia ip in BDF1 mice, survival T/C
Assay: NCI In Vivo Anticancer Drug Screen. Data for tumor model L1210 Leukemia (intraperitoneal) in B6D2F1 (BDF1) mice
Details: endpoint: mean survival time, higher = longer survival
Procedure, shortened: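 In this screen, tumor-bearing mice given compound are compared to those given vehicle, and their survival values are reported as a treated-to-control quotient.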

[1] = dose: 25.0 mg/kg/injection, schedule: Q01DX009 (ip), vehicle: saline
[2] = dose: 50.0 mg/kg/injection, schedule: Q01DX009 (ip), vehicle: saline
[3] = dose: 100.0 mg/kg/injection, schedule: Q01DX009 (ip), vehicle: saline
[4] = dose: 200.0 mg/kg/injection, schedule: Q01DX009 (ip), vehicle: saline
[5] = dose: 100.0 mg/kg/injection, schedule: Q01DX001 (ip), vehicle: saline
[6] = dose: 200.0 mg/kg/injection, schedule: Q01DX001 (ip), vehicle: saline
[7] = dose: 400.0 mg/kg/injection, schedule: Q01DX001 (ip), vehicle: saline
[8] = dose: 100.0 mg/kg/injection, schedule: Q04DX003 (ip), vehicle: Klucel (hydroxypropylcellulose) (HPC)
[9] = dose: 200.0 mg/kg/injection, schedule: Q04DX003 (ip), vehicle: Klucel (hydroxypropylcellulose) (HPC)
[10] = dose: 400.0 mg/kg/injection, schedule: Q04DX003 (ip), vehicle: Klucel (hydroxypropylcellulose) (HPC)
[11] = dose: 5.0 mg/kg/injection, schedule: Q01DX001 (ip), vehicle: saline
[12] = dose: 100.0 mg/kg/injection, schedule: Q01DX009 (ip), vehicle: Klucel (hydroxypropylcellulose) (HPC)
[13] = dose: 200.0 mg/kg/injection, schedule: Q01DX009 (ip), vehicle: Klucel (hydroxypropylcellulose) (HPC)
[14] = dose: 400.0 mg/kg/injection, schedule: Q01DX009 (ip), vehicle: Klucel (hydroxypropylcellulose) (HPC)
[15] = dose: 100.0 mg/kg/injection, schedule: Q01DX001 (ip), vehicle: carboxymethylcellulose (CMC)
[16] = dose: 200.0 mg/kg/injection, schedule: Q01DX001 (ip), vehicle: carboxymethylcellulose (CMC)
[17] = dose: 100.0 mg/kg/injection, schedule: Q04DX002 (ip), vehicle: Klucel (hydroxypropylcellulose) (HPC)

Measured: T/C

COc1cc(C(O)CN)cc(OC)c1OC (stereo not given)
inactive: [1] 100 % of control | dose: 25.0 mg/kg/injection, schedule: Q04DX003 (ip), vehicle: saline 88 % of control | [2] 94 % of control | dose: 50.0 mg/kg/injection, schedule: Q04DX003 (ip), vehicle: saline 94 % of control | [3] 104 % of control | dose: 100.0 mg/kg/injection, schedule: Q04DX003 (ip), vehicle: saline 88 % of control | [4] 110 % of control | dose: 200.0 mg/kg/injection, schedule: Q04DX003 (ip), vehicle: saline 94 % of control | dose: 400.0 mg/kg/injection, schedule: Q04DX003 (ip), vehicle: saline 91 % of control

O=C(CC(O)c1ccccc1)Nc1ccccn1 (stereo not given)
inactive: [5] 98 % of control | [6] 102 % of control | [7] 93 % of control

CN(C)N=C(Cc1ccccc1)Cc1ccccc1
inactive: dose: 50.0 mg/kg/injection, schedule: Q01DX009 (ip), vehicle: saline with Tween-80 97 % of control | dose: 100.0 mg/kg/injection, schedule: Q01DX009 (ip), vehicle: saline with Tween-80 103 % of control | dose: 100.0 mg/kg/injection, schedule: Q04DX003 (ip), vehicle: saline with Tween-80 103 % of control | dose: 200.0 mg/kg/injection, schedule: Q04DX003 (ip), vehicle: saline with Tween-80 106 % of control

COc1cccc(CNc2ccc(C)c(Cl)c2)c1OC
inactive: dose: 100.0 mg/kg/injection, schedule: Q01DX009 (ip), vehicle: gum acacia 99 % of control | dose: 100.0 mg/kg/injection, schedule: Q04DX003 (ip), vehicle: gum acacia 104 % of control | dose: 200.0 mg/kg/injection, schedule: Q01DX009 (ip), vehicle: gum acacia 108 % of control | dose: 200.0 mg/kg/injection, schedule: Q04DX003 (ip), vehicle: gum acacia 97 % of control | dose: 400.0 mg/kg/injection, schedule: Q01DX009 (ip), vehicle: gum acacia 87 % of control | dose: 400.0 mg/kg/injection, schedule: Q04DX003 (ip), vehicle: gum acacia 90 % of control

c1ccc2c(C3=NCCN3)ccc(C3=NCCN3)c2c1
inactive: dose: 15.0 mg/kg/injection, schedule: Q01DX Z (ip), vehicle: saline 100 % of control | dose: 30.0 mg/kg/injection, schedule: Q01DX Z (ip), vehicle: saline 101 % of control

O=S(=O)(NO)c1cccc(S(=O)(=O)NO)c1
inactive: [3] 97 % of control | [8] 89 % of control | [4] 87 % of control | [9] 95 % of control | [10] 92 % of control

c1cncc(-c2ncnc3c2Cc2ccccc2-3)c1
inactive: [8] 97 % of control | [9] 111 % of control

FCCNCCF
inactive: [11] 101 % of control | dose: 10.0 mg/kg/injection, schedule: Q01DX001 (ip), vehicle: saline 112 % of control

Clc1ccc2c(Cl)ccnc2c1
inactive: dose: 100.0 mg/kg/injection, schedule: Q04DX002 (ip), vehicle: gum acacia 91 % of control | dose: 200.0 mg/kg/injection, schedule: Q04DX002 (ip), vehicle: gum acacia 95 % of control

Cc1cc(N)c(C)c2ccncc12
inactive: [11] 103 % of control

NC(=O)Nc1cccc(C(=O)O)c1
inactive: [12] 89 % of control | [8] 92 % of control | [13] 87 % of control | [9] 92 % of control | [14] 87 % of control | [10] 96 % of control

CS(=O)(=O)OCC1(Br)CC1(c1ccccc1)c1ccccc1 (stereo not given)
inactive: dose: 100.0 mg/kg/injection, schedule: Q01DX001 (ip), vehicle: other 95 % of control | dose: 200.0 mg/kg/injection, schedule: Q01DX001 (ip), vehicle: other 95 % of control | dose: 400.0 mg/kg/injection, schedule: Q01DX001 (ip), vehicle: other 90 % of control

CN(C)N=Nc1ccccc1C(=O)NN
inactive: dose: 18.75 mg/kg/injection, schedule: Q01DX009 (ip), vehicle: Klucel (hydroxypropylcellulose) (HPC) 94 % of control and 110 % of control | dose: 37.5 mg/kg/injection, schedule: Q01DX009 (ip), vehicle: Klucel (hydroxypropylcellulose) (HPC) 105 % of control and 107 % of control | dose: 50.0 mg/kg/injection, schedule: Q01DX001 (ip), vehicle: carboxymethylcellulose (CMC) 101 % of control | dose: 75.0 mg/kg/injection, schedule: Q01DX009 (ip), vehicle: Klucel (hydroxypropylcellulose) (HPC) 100 % of control and 115 % of control | [15] 101 % of control | dose: 150.0 mg/kg/injection, schedule: Q01DX009 (ip), vehicle: Klucel (hydroxypropylcellulose) (HPC) 107 % of control | [16] 101 % of control

COc1cc(C(Br)C(Br)C(=O)c2ccccc2[N+](=O)[O-])cc(OC)c1OC (stereo not given)
inactive: [12] 95 % of control | [13] 95 % of control | [14] 94 % of control

O=C1OCC/C1=C\N1CCCCC1
inactive: dose: 25.0 mg/kg/injection, schedule: Q04DX002 (ip), vehicle: Klucel (hydroxypropylcellulose) (HPC) 113 % of control | dose: 50.0 mg/kg/injection, schedule: Q04DX002 (ip), vehicle: Klucel (hydroxypropylcellulose) (HPC) 98 % of control | [17] 98 % of control and 101 % of control

CCOc1ccc(NC(=S)NCCc2ccccc2)cc1
inactive: [12] 102 % of control | [13] 102 % of control | [14] 105 % of control

CC(=O)OCC(OC(C)=O)C(OC(C)=O)C(OC(C)=O)C(/C=N/NC(N)=S)=N/NC(N)=S (stereo not given)
inactive: dose: 100.0 mg/kg/injection, schedule: Q01DX009 (ip), vehicle: other 95 % of control | dose: 100.0 mg/kg/injection, schedule: Q04DX003 (ip), vehicle: other 98 % of control | dose: 200.0 mg/kg/injection, schedule: Q01DX009 (ip), vehicle: other 91 % of control | dose: 200.0 mg/kg/injection, schedule: Q04DX003 (ip), vehicle: other 103 % of control | dose: 400.0 mg/kg/injection, schedule: Q04DX003 (ip), vehicle: other 103 % of control

CN1CN(c2ccccc2)C2(CCN(C(=O)/C=C/c3ccc(F)cc3)CC2)C1=O
inactive: dose: 75.0 mg/kg/injection, schedule: Q04DX003 (ip), vehicle: Klucel (hydroxypropylcellulose) (HPC) 92 % of control | dose: 150.0 mg/kg/injection, schedule: Q04DX003 (ip), vehicle: Klucel (hydroxypropylcellulose) (HPC) 88 % of control

S=C(Nc1ccccc1)Nc1cccc2ccccc12
inactive: dose: 50.0 mg/kg/injection, schedule: Q01DX001 (ip), vehicle: saline 97 % of control | [5] 103 % of control | [12] 105 % of control | [17] 87 % of control | [6] 97 % of control | [13] 105 % of control | dose: 200.0 mg/kg/injection, schedule: Q04DX002 (ip), vehicle: Klucel (hydroxypropylcellulose) (HPC) 87 % of control | [7] 94 % of control | [14] 112 % of control

O=C(N/N=C/c1ccccn1)C1CCCO1 (stereo not given)
inactive: [1] 102 % of control | [2] 102 % of control | [3] 98 % of control and 116 % of control | [4] 117 % of control

CCCCCCCCCCCCCCCCCC(CCCCCCCCCCCCCCCC)CCCCCCCCCCCCCCCC
inactive: [15] 96 % of control | [16] 102 % of control | dose: 400.0 mg/kg/injection, schedule: Q01DX001 (ip), vehicle: carboxymethylcellulose (CMC) 91 % of control

CCOc1ccccc1NC(=O)COc1ccc(Cl)cc1
inactive: [12] 98 % of control | [8] 90 % of control | [13] 103 % of control | [9] 101 % of control | [14] 97 % of control | [10] 108 % of control
